Measurements from patent publication US4196205A, “3-Acetoxymethyl-7-(iminoacetamido)-cephalosporanic acid derivatives” (priority 1976, dated 1980).
Converted amounts (≈) assume the structure as drawn. Read-outs that look alike come from different tables or passages of the source.

Key:
Assay in all cases: MIC, dilution in liquid medium
Type in all cases: cell-based
[1] = tested on: Klebsiella pneumoniae Exp. 52 145; conditions: Klebsiella pneumoniae
Procedure: (§1) The method used was a dilution of a liquid medium where a series of tubes received the same quantity of a sterile nutritive media and increasing doses of the test compounds were placed therein. Then each tube was seeded with a bacterial strain and was incubated for 24 to 48 hours at 37° C. in an oven. The increasing inhibition was determined by transillumination to determine the minimum inhibiting concentration (MIC in […]) and the results are reported in the following Tables.

[2] = tested on: Salmonella typhimurium 420; conditions: Salmonella enterica, TYPHIMURIUM
Procedure: as §1

[3] = tested on: Escherichia Coli Exp. TO26 B6; conditions: Escherichia coli
Procedure: as §1

[4] = tested on: Klebsiella pneumoniae 2 536 Resistant Gentamicine; conditions: Klebsiella pneumoniae
Procedure: as §1

[5] = tested on: Bacillus subtilis ATCC 6 633; conditions: Bacillus subtilis
Procedure: as §1

[6] = tested on: Streptococcus pyogenes A 561; conditions: Streptococcus pyogenes, read-out: M.I.C.
Procedure: as §1

[7] = tested on: Staphylococcus aureus UC 1 128 Pen-Resistant; conditions: Staphylococcus aureus, read-out: M.I.C.
Procedure: as §1

[8] = tested on: Escherichia Coli Sensible Tetracycline ATCC 9 637 = 1020; conditions: Escherichia coli, ST UC 1020
Procedure: as §1

Enterobacter cloacae 681 = tested on: Enterobacter cloacae 681
Procedure: as §1

[9] = tested on: Escherichia Coli Resistant Tetracycline ATCC 11 303 = UC 1261; conditions: Escherichia coli
Procedure: as §1

[10] = tested on: Staphylococcus aureus exp. n° 54 146; conditions: Staphylococcus aureus
Procedure: as §1

[11] = tested on: Escherichia Coli Resistant Gentamicine, Tobramycine R 55 123 D; conditions: Escherichia coli
Procedure: as §1

[12] = tested on: Proteus mirabilis (indol-) A 235; conditions: Proteus mirabilis
Procedure: as §1

[13] = tested on: Staphylococcus aureus ATCC 5 638 Pen-Sensible = UC 1061; conditions: UC 1061 Pen-Sensible
Procedure: as §1

Compound: CC(=O)OCC1=C(C(=O)O)N2C(=O)[C@@H](NC(=O)/C(=N/O)c3csc(N)n3)[C@H]2SC1 [3-acetoxymethyl-7-[2-(2amino-4-thiazolyl)-2-hydroxyiminoacetamido]-ceph-3-eme-4-carboxylic acid]
- MIC ([1]; EXP.52145, 24 h, 24 H, read-out: M.I.C.): 0.6 µg/mL (≈ 1.36 µM)
- MIC ([1]; EXP.52145, 48 h, 48 H): 0.6 µg/mL (≈ 1.36 µM)
- MIC ([2]; 24 h): 2 µg/mL (≈ 4.53 µM)
- MIC ([2]; 48 h): 2 µg/mL (≈ 4.53 µM)
- MIC ([3]; 24 h): 2 µg/mL (≈ 4.53 µM)
- MIC ([3]; 48 h): 2 µg/mL (≈ 4.53 µM)
- MIC ([4]; 24 h): 20 µg/mL (≈ 45.3 µM)
- MIC ([4]; 48 h): 40 µg/mL (≈ 90.6 µM)
- MIC ([5]; ATCC6, 24 h, 24 H): 2 µg/mL (≈ 4.53 µM)
- MIC ([5]; ATCC6, 48 h, 48 H): 5 µg/mL (≈ 11.3 µM)
- MIC ([6]; A561, 24 h, 24 H): 0.5 µg/mL (≈ 1.13 µM)
- MIC ([6]; A561, 48 h, 48 H): 0.5 µg/mL (≈ 1.13 µM)
- MIC ([7]; UC1, 24 h): 10 µg/mL (≈ 22.7 µM)
- MIC ([7]; UC1, 48 h): 10 µg/mL (≈ 22.7 µM)
- MIC ([8]; ATCC 9 / UC1020, 24 h, 24 H): 3 µg/mL (≈ 6.8 µM)
- MIC ([8]; ATCC 9 / UC1020, 48 h, 48 H): 3 µg/mL (≈ 6.8 µM)
- MIC (Enterobacter cloacae 681; Enterobacter cloacae, 681, 24 h): 40 µg/mL (≈ 90.6 µM)
- MIC (Enterobacter cloacae 681; Enterobacter cloacae, 681, 48 h): 40 µg/mL (≈ 90.6 µM)
- MIC ([9]; 24 h): 1 µg/mL (≈ 2.27 µM)
- MIC ([9]; 48 h): 1 µg/mL (≈ 2.27 µM)
- MIC ([10]; 24 h): 5 µg/mL (≈ 11.3 µM)
- MIC ([10]; 48 h, read-out: M.I.C.): 10 µg/mL (≈ 22.7 µM)
- MIC ([11]; 24 h): 5 µg/mL (≈ 11.3 µM)
- MIC ([11]; 48 h, RG R55 123D, read-out: M.I.C.): 10 µg/mL (≈ 22.7 µM)
- MIC ([12]; 24 h): 2 µg/mL (≈ 4.53 µM)
- MIC ([12]; 48 h): 2 µg/mL (≈ 4.53 µM)
- MIC ([13]; 24 h): 5 µg/mL (≈ 11.3 µM)
- MIC ([13]; 48 h): 5 µg/mL (≈ 11.3 µM)
